According to patent publication US12697313B2, “Methods of treating anemia using formoterol or a pharmaceutically acceptable salt thereof” (Dana-Farber Cancer Institute, Inc., priority 2022, dated 2026):
“Also recorded” adds a separate entry of the source.

Experiments:
[1] = system: Apcmin mice; experiment: FF i.p. in Apcmin mice (intestinal adenoma model that develops anemia); type: in vivo
Procedure: This is a mouse model of intestinal adenoma that develops anemia. FF treatment at a low dose of 0.3 mg/kg daily (i.p.) alleviates RBC parameters, such as (FIG. 74A) RBCs (FIG. 74B) hematocrit% (HCT%) and (FIG. 74C) hemoglobin (Hb) in Apcmin mice that spontaneously develop anemia at ~3 months age. * p<0.05, *** p<0.001, 2-way ANOVA. n=5-6 mice per group. Comparisons are shown in between Apcmin+FF versus Apcmin+Veh. Veh: vehicle; LC: littermate control mice.

[2] = system: phenylhydrazine (PHZ)-mediated stress-induced anemic mice; experiment: Sublethal PHZ (60 mg/kg)-induced hemolytic anemia, male mice, FF i.p.; type: in vivo
[3] = system: MDS patient-derived bone marrow cells; experiment: Liquid erythroid differentiation culture of MDS patient-derived bone marrow cells (ex vivo); type: cell-based, human; conditions: for erythroid differentiation (CD235a): n=40 MDS patients
Source text: These findings prompted further testing to determine whether administration of FF in MDS patient-derived bone marrow (BM) samples improves erythroid differentiation in an ex vivo setting. To explore this, cells isolated from BM aspirates of de-identified MDS patients were procured. Next, the MDS patient-derived BM cells were placed in liquid erythroid differentiation culture, as previously described (Khajuria et al. (2018) Cell 173: 90-103), with or without FF treatment. […] To further validate this observation, the impact of FF from another vendor (Sigma) was tested on MDS patient-derived cells. […] Next, CD34+ progenitors were FACS-sorted from the MDS patient-derived BM aspirates and seeded in semi-solid methylcellulose culture media with vehicle (DMSO) or FF treatment. […] Therefore, the FDA-approved drug formoterol fumarate could be repurposed to reverse anemia in a range of hematological disorders.
CD34+ primary human hematopoietic stem and progenitor cells (HSPCs) were obtained from Fred-Hutchinson Cancer Research center, Seattle, USA and cultured, as previously described. Formoterol fumarate was purchased from Selleckchem (#S2020) and Sigma (#F9552), dissolved (in DMSO) and stored as per manufacturer's instructions, and used at the final working concentrations as indicated. Frozen BM aspirates from de-identified MDS patients were obtained using our IRB approved protocol (#21-632) from the Pasquarello tissue bank at DFCI.

[4] = system: primary human HSPCs; experiment: Methylcellulose colony-formation assay, primary human HSPCs; type: cell-based; conditions: n=4 healthy donors; vs DMSO; FIG. 4
Procedure: Given the involvement of β2-AR in erythropoiesis, it was hypothesized that administration of long-acting selective β2-AR agonist FF might promote erythroid differentiation. To address this, primary human HSPCs were treated with varying doses of FF (Selleckchem). […] To ascertain if FF administration plays a role further upstream in the erythroid differentiation pathway, methylcellulose colony-formation assays were performed.
After genome editing, primary human HSPCs were washed twice with 1× PBS and mixed with semi-solid methylcellulose medium (H4034 StemCell Technologies) by brief vortexing. Cells were plated at a density of 2000 per well in a 6-well plate followed by incubation in a humidified chamber at 37° C. for 14 days. Imaging of the colonies was performed using EVOS M5000 Imaging system® (ThermoFisher Scientific). The colony-forming cells were then collected by triturating the wells using staining buffer and multi-color flow cytometry was performed as previously described (Li et al. (2014) Blood 124: 3636-3645).

[5] = system: naive wild-type mice; experiment: FF in naive wild-type mice without PHZ stress (FIG. 62 setup); type: in vivo; conditions: for % change in body weights: FIG. 63
[6] = system: erythroid progenitors / bone marrow cells of wild-type mice; experiment: Gene expression (bulk RNA sequencing, qPCR) in FF-treated naive wild-type mice; type: in vivo
Source text: Data represented as mean±SEM. All comparisons are done with respect to Vehicle (DMSO-treated).
This example describes the effects of formoterol fumarate treatment on expression of genes that have been linked to erythropoiesis including Klf9 (Ren et al., (2018) Yi Chuan. 40(11):998-1006 and Zhang et al., (2017) Blood 130(20):2161-2170), Klf13, Klf11 (Emery (2007) J. Cell. Biochem 100(4):1045-55), Hif1a (Wellmann, et al., (2004) J. Cell Sci. 117:175-94; Feng et al., (2022) Nature 610(7933):783-790; and Chen et al., (2019) N Engl J Med 381:1011-1022), Epas1 (Scortegagna et al. (2003) Blood 102:1634-40), Ddit4 (Yoshikawa (2023) Cancer Biomark. 37(4): 217-225), Cirbp, and Rora (Kim et al. (2008) Arterioscler Throm Vasc Biol 28(10):1796-802 and Chauvet et al., (2004) Biochem. J. 384:79-85). Differential gene expression in naïve wild-type mice was analyzed by bulk RNA sequencing according to an example workflow as depicted in FIG. 86.

[7] = system: mitochondrial biogenesis; conditions: cited from earlier work
[8] = system: phenylhydrazine (PHZ)-treated mice; experiment: FF/Arf i.p. in PHZ-treated mice at sub-lethal dose of 60 mg/kg; type: in vivo
[9] = 0.1/0.3 mg/kg, PHZ 60 mg/kg, FIG. 26

Which “RBC parameters (RBCs, HCT%, Hb)” value ([1]; 0.3 mg/kg daily i.p., FIG. 74) does the source give for `COc1ccc(C[C@@H](C)NC[C@H](O)c2ccc(O)c(NC=O)c2)cc1.O=C(O)/C=C/C(=O)O` [FF, (E)-but-2-enedioic acid;N-[2-hydroxy-5-[(1R)-1-hydroxy-2-[[(2R)-1-(4-methoxyphenyl)propan-2-yl]amino]ethyl]phenyl]formamide] here?
The value was “elevates RBC parameters”.

And the body weight ([1]; FIG. 75)?
The body weight was “modestly increases body weight”.

What about the “body weights (absolute and % change)” value ([2]; 0.1/0.3 mg/kg i.p., PHZ 60 mg/kg, male, FIG. 22A) of the same compound?
Its value is “marked revival was similarly observed in body weights; also recorded: increases absolute body weights and % change in body weights”.

And the “viability of BM cells” value ([2]; 0.1/0.3 mg/kg, PHZ 60 mg/kg, FIG. 23A)?
The value was “marked increase in viability; also recorded: substantially increases viability”.

And the “common myeloid progenitors (CMP) and granulocyte monocyte progenitors (GMP) in BM” value [2, 9]?
Its value is “not affected”.

What about the “megakaryocyte erythroid progenitors (MEP) in BM” value [2, 9] of the same compound?
Its value is “specifically boosted megakaryocyte erythroid progenitors (MEP); also recorded: substantially increases MEP”.

What about the “megakaryocytic progenitors (MkP) in BM” value ([2]; 0.1/0.3 mg/kg, PHZ 60 mg/kg, FIG. 27) of the same compound?
The value was “no stark differences were observed in megakaryocytic progenitors; also recorded: does not affect megakaryocytic progenitors”.

And the “mitochondrial mass in PBMCs (MitoTracker staining)” value ([2]; Day 4 after PHZ treatment, FIG. 21)?
The value was “increases MitoTracker® Staining”.

And the “mitochondrial biogenesis in BM cells (MitoTracker staining)” value ([2]; FIG. 23B)?
Its value is “elevated mitochondrial biogenesis; also recorded: enhances mitochondrial biogenesis”.

And the “mitochondrial superoxide production in BM cells (MitoSox staining)” value ([2]; FIG. 23C)?
Its value is “reduced mitochondrial superoxide production; also recorded: significantly reduces mitochondrial superoxide production”.

And the “LS-K cells in the bone marrow” value ([2]; FIG. 25)?
The value was “enhances LS-K cells”.

And the “Pre-CFU-E cells in the BM” value ([2]; FIG. 28)?
Its value is “selectively enhances Pre-CFU-E cells”.

And the “pro-erythroblasts in the BM” value ([2]; FIG. 29)?
The value was “selectively enhances pro-erythroblasts”.

What about the “granulocytic myeloid progenitors (GMP) in bone marrow” value ([2]; FIG. 41, study not stated in legend) of the same compound?
Its value is “does not affect granulocytic myeloid progenitors (GMP)”.

And the “RBC parameters (Hb, HCT %, RBC numbers) in peripheral blood” value ([2]; PHZ 60 mg/kg, FIG. 22B)?
The value was “consistently improved RBC parameters; also recorded: significantly enhances and sustains RBC parameters”.

And the platelet counts ([2]; PHZ 60 mg/kg, FIG. 22C)?
The platelet counts was “no long term impact was observed in the WBC parameters or platelets; also recorded: not statistically significant”.

What about the “WBC and monocyte counts” value ([2]; day 4 and over 14 days, PHZ 60 mg/kg, FIG. 22C) of the same compound?
Its value is “no long term impact was observed in the WBC parameters or platelets; also recorded: increases WBC and monocyte counts in the peripheral blood after 4 days of daily i.p. injections but does not sustain the impact over 14 days”.

What about the myelopoiesis/megakaryopoiesis ([3]; 40 MDS patient-derived cells, FIG. 9) of the same compound?
Its myelopoiesis/megakaryopoiesis is “does not affect myelopoiesis/megakaryopoiesis”.

And the “erythroid differentiation (CD235a)” value ([3]; FF from Selleckchem, FIG. 8A)?
Its value is “significantly enhanced erythroid differentiation in BM cells in the majority of MDS patients; also recorded: enhances erythroid differentiation in MDS patient-derived bone marrow cells”.

What about the “erythroid differentiation (CD235a)” value ([3]; FF from Sigma, FIG. 8B) of the same compound?
The value was “boosted erythropoiesis in the majority of MDS patients; also recorded: enhances erythroid differentiation in MDS patient-derived bone marrow cells”.

And the “BFU-E and CFU-E formation” value [4]?
The value was “significantly increased blast-forming unit-erythroid (BFU-E) and colony-forming unit-erythroid (CFU-E) formation; also recorded: enhances blast forming unit-erythroid (BFU-E) and colony forming unit-erythroid (CFU-E) formation”.

And the “% change in body weights” value ([5]; 0.1/0.3/0.5 mg/kg)?
The value was “increases body weights”.

What about the “viability of BM progenitors” value ([5]; 0.1/0.3/0.5 mg/kg, FIG. 67A) of the same compound?
Its value is “substantially increases”.

And the “LS-K cells in the BM” value ([5]; 0.1/0.3/0.5 mg/kg, FIG. 67B)?
Its value is “substantially increases”.

And the “MEP and MkP in BM” value ([5]; 0.1/0.3/0.5 mg/kg, FIG. 68A-68B)?
The value was “significantly elevates megakaryocyte erythroid progenitors (MEP) and megakaryocytic progenitors (MkP)”.

What about the “expression of erythroid genes EPOR, ASXL1, NFE2 in sorted erythroid progenitors” value ([5]; 0.1/0.3/0.5 mg/kg, FIG. 70A-70C) of the same compound?
Its value is “substantially increases the expression of erythroid genes”.

And the “expression of ADRB2 in sorted erythroid progenitors” value ([5]; 0.1/0.3/0.5 mg/kg, FIG. 70D)?
The value was “does not influence the expression of β2-AR-encoding gene ADRB2”.

And the “% change in body weights” value ([5]; 0.1 and 0.3 mg/kg groups)?
Its value is “did not show statistical significance”.

What about the HCT% ([5]; 0.1 and 0.5 mg/kg groups, FIG. 64C) of the same compound?
Its HCT% is “did not show statistical significance”.

What about the “RBC parameters (RBC numbers, Hb, HCT %) in peripheral blood” value ([5]; FIG. 64) of the same compound?
Its value is “enhances and sustains RBC parameters”.

And the “WBC numbers and platelet counts” value ([5]; FIG. 65A, 65C)?
The value was “does not influence”.

What about the “monocyte counts in peripheral blood” value ([5]; FIG. 65B) of the same compound?
The value was “modestly impacts monocyte counts”.

What about the “mitochondrial biogenesis in BMPs (MitoTracker staining)” value ([5]; FIG. 66A) of the same compound?
Its value is “enhances mitochondrial biogenesis”.

What about the “mitochondrial membrane potential in BMPs (TMRE staining)” value ([5]; FIG. 66B) of the same compound?
Its value is “enhances mitochondrial membrane potential”.

And the “mitochondrial superoxide production in BMPs (MitoSox staining)” value ([5]; FIG. 66C)?
The value was “significantly reduces mitochondrial superoxide production”.

What about the “HIF-1α expression in bone marrow cells” value ([6]; 0.5mg/kg ip 3× weekly, qPCR, FIG. 88A) of the same compound?
The value was “enhances HIF-1α expression; also recorded: both significantly increased”.

And the “VEGFA expression in bone marrow cells” value ([6]; 0.5mg/kg ip 3× weekly, qPCR, FIG. 88B)?
Its value is “enhances; also recorded: both significantly increased”.

What about the “expression of Klf9, Klf13, Klf11, Hif1a, Epas1, Ddit4, Cirbp, Rora in erythroid progenitors from bone marrow” value ([6]; bulk RNA sequencing, FF-treated vs vehicle-treated, FIG. 87) of the same compound?
The value was “increased in FF-treated mice”.

And the “expression of mtDNA encoded genes” value ([7]; Arif et al. 2019)?
Its value is “upregulates the expression of mtDNA encoded genes”.

What about the “mitochondrial oxygen consumption rates (OCR)” value ([7]; in vitro and ex vivo (Arif et al. 2019)) of the same compound?
Its value is “promotes mitochondrial oxygen consumption rates (OCR)”.

What about the mitochondrial biogenesis ([7]; several in vitro and in vivo models (literature)) of the same compound?
The mitochondrial biogenesis was “reported to augment mitochondrial biogenesis”.

And the “colony forming unit-erythroid (CFU-e) from BM” value ([8]; 0.3 mg/kg i.p., FIG. 39A)?
Its value is “enhances colony forming unit-erythroid (CFU-e)”.

What about the “transferrin receptor expression in CFU-e derived from BMPs” value ([8]; FIG. 39B) of the same compound?
Its value is “transferrin receptor expression is enhanced”.

And the “Hemoglobin (Hb) in peripheral blood” value ([8]; after 7 and 14 days of i.p., FIG. 35)?
The value was “increase Hemoglobin (Hb)”.

And the “RBC parameters (HCT % and RBCs) in peripheral blood” value ([8]; after 7 days of i.p., FIG. 34)?
Its value is “increases RBC parameters”.

What about the “LS-K and LSK cells in bone marrow progenitors” value ([8]; after 14 days of i.p., FIG. 36A-36B) of the same compound?
Its value is “increase LSK, LS-K, and mitochondrial activity”.

And the “mitochondrial membrane potential (TMRE staining) in bone marrow progenitors” value ([8]; after 14 days of i.p., FIG. 36C)?
Its value is “increase LSK, LS-K, and mitochondrial activity”.

What about the “megakaryocyte erythrocyte progenitors (MEP) in BM” value ([8]; after 14 days of i.p., FIG. 37A) of the same compound?
The value was “increase megakaryocyte erythrocyte progenitors (MEP)”.

And the body weights ([8]; i.p., PHZ 60 mg/kg, FIG. 32)?
Its body weights is “enhances body weights”.

And the “platelets and WBCs in peripheral blood” value ([8]; i.p., PHZ 60 mg/kg, FIG. 33)?
Its value is “do not affect platelets and WBCs”.
